Reference: PubChem BioAssay (NCI)
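GI50 marks 50% less growth. TGI marks complete inhibition of growth.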

Legend:
Assay in all cases: NCI anticancer screen, dose series, 384-well format
[1] = test system: SF-295 CNS
[2] = test system: SNB-19 CNS
[3] = test system: COLO 205 colon
[4] = test system: SW-620 colon
[5] = test system: U251 glioblastoma
[6] = test system: CAKI-1 renal
[7] = test system: NCI-H522 lung
[8] = test system: MDA-MB-468 breast
[9] = test system: SF-268 CNS
[10] = test system: LOX IMVI melanoma
[11] = test system: HT29 colon
[12] = test system: NCI/ADR-RES ovarian
[13] = test system: TK-10 renal
[14] = test system: HCC-2998 colon
[15] = test system: HOP-62 NSCLC
[16] = test system: SNB-75 CNS
[17] = test system: HCT-15 colon
[18] = test system: SK-MEL-2 melanoma
[19] = test system: UACC-62 melanoma
[20] = test system: A498 renal
[21] = test system: A549 NSCLC
[22] = test system: UACC-257 melanoma
[23] = test system: MOLT-4 leukemia
[24] = test system: T-47D breast
[25] = test system: SF-539 CNS
[26] = test system: OVCAR-3 ovarian
[27] = test system: OVCAR-8 ovarian
[28] = test system: KM12 colon
[29] = test system: SR leukemia
[30] = test system: ACHN renal
[31] = test system: HL-60(TB) leukemia
[32] = test system: NCI-H460 NSCLC
[33] = test system: 786-0 renal
[34] = test system: NCI-H226 lung
[35] = test system: RPMI-8226 leukemia
[36] = test system: NCI-H23 lung
[37] = test system: MALME-3M melanoma
[38] = test system: HOP-92 NSCLC
[39] = test system: HS 578T breast
[40] = test system: IGROV1 ovarian
[41] = test system: UO-31 renal
[42] = test system: K-562 leukemia
[43] = test system: CCRF-CEM leukemia
[44] = test system: RXF 393 renal
[45] = test system: BT-549 breast
[46] = test system: PC-3 prostate
[47] = test system: EKVX NSCLC

CC(F)(F)c1cc(F)ccc1-c1sc2cc(O)ccc2c1Oc1ccc(/C=C/C(=O)O)cc1
GI50 [1]: 7.72 µM
TGI [1]: 21.6 µM
GI50 [2]: 12.7 µM
TGI [2]: 25.6 µM
GI50 [3]: 16.5 µM
TGI [3]: 31.7 µM
GI50 [4]: 16.9 µM
TGI [4]: 30.9 µM
GI50 [5]: 12.6 µM
TGI [5]: 25.3 µM
GI50 [6]: 15.1 µM
TGI [6]: 29.9 µM
GI50 [7]: 8.38 µM
TGI [7]: 21.3 µM
GI50 [8]: 11.7 µM
TGI [8]: 26.6 µM
GI50 [9]: 16.7 µM
TGI [9]: 37.2 µM
GI50 [10]: 13.5 µM
TGI [10]: 26.7 µM
GI50 [11]: 16.2 µM
TGI [11]: 31.4 µM
GI50 [12]: 16.5 µM
TGI [12]: > 100 µM
GI50 [13]: 22.9 µM
TGI [13]: 61.6 µM
GI50 [14]: 18.2 µM
TGI [14]: 32.3 µM
GI50 [15]: 9.88 µM
TGI [15]: 21.8 µM
GI50 [16]: 15.5 µM
TGI [16]: 33 µM
GI50 [17]: 11.3 µM
TGI [17]: 24 µM
GI50 [18]: 13.6 µM
TGI [18]: 28.9 µM
GI50 [19]: 9.94 µM
TGI [19]: 21.6 µM
GI50 [20]: 13.3 µM
TGI [20]: 29.1 µM
GI50 [21]: 13.8 µM
TGI [21]: 31.2 µM
GI50 [22]: 17 µM
TGI [22]: 36.4 µM
GI50 [23]: 13.3 µM
TGI [23]: 26.1 µM
GI50 [24]: 11.2 µM
TGI [24]: 25.9 µM
GI50 [25]: 15.8 µM
TGI [25]: 29.8 µM
GI50 [26]: 12.6 µM
TGI [26]: 25.8 µM
GI50 [27]: 25.4 µM
TGI [27]: > 100 µM
GI50 [28]: 12.7 µM
TGI [28]: 25.5 µM
GI50 [29]: 2.08 µM
TGI [29]: 4.33 µM
GI50 [30]: 17 µM
TGI [30]: 37.8 µM
GI50 [31]: 14.6 µM
TGI [31]: 27.8 µM
GI50 [32]: 17.6 µM
TGI [32]: 31.8 µM
GI50 [33]: 14.6 µM
TGI [33]: 33.4 µM
GI50 [34]: 20 µM
TGI [34]: 40.3 µM
GI50 [35]: 11 µM
TGI [35]: 23.2 µM
GI50 [36]: 16.3 µM
TGI [36]: 30.7 µM
GI50 [37]: 13.5 µM
TGI [37]: 27.8 µM
GI50 [38]: 16.1 µM
TGI [38]: 35.3 µM
GI50 [39]: 10.2 µM
TGI [39]: 22 µM
GI50 [40]: 18.1 µM
TGI [40]: 39.3 µM
GI50 [41]: 12.4 µM
TGI [41]: 26.3 µM
GI50 [42]: 10.9 µM
TGI [42]: 24.4 µM
GI50 [43]: 12.6 µM
TGI [43]: 25.2 µM
GI50 [44]: 5 µM
TGI [44]: 18.5 µM
GI50 [45]: 12.8 µM
TGI [45]: 26.7 µM
GI50 [46]: 13.9 µM
TGI [46]: 28.1 µM
GI50 [47]: 16.9 µM
TGI [47]: 37.9 µM
